In brackets after ≈: the same amount, converted by molar mass. Counter-ions that a name gives are not always drawn.

In the first test the test system is Guineapig atrium. In words: Positive inotropic effect, isolated electrically stimulated guineapig atrium. It is filed as cell-based. The settings on record: Cavia porcellus, Table III, formula Ia, 32° C., contractility recorded 7 to 10 minutes. As for the experimental part: Positive inotropic effect
The following method was used:
Guineapigs of both sexes and weighing 400 g are sacrificed, and the heart is removed and placed in Ringer's solution at room temperature. Both the left and the right atria are then isolated and fixed in an organ holder, and the preparation is placed in a bath containing Ringer's solution and maintained at a temperature of 32° C. A mixture of 95% O2 and 5% CO2 is then bubbled through the organ bath and the atrium is electrically stimulated. The compound to be tested is dissolved in water to give a solution of known concentration and is added to the bath. The contractility of the atrium is recorded for 7 to 10 minutes on a Nihon Kohden 4-channel pen recorder with an isometric strain gage. The activity is expressed on the basis of the resulting data as the EC50.
The results obtained in this model are indicated for representative compounds of the invention in Tables III and IV which follow: […]
With `C=C[C@@]1(C)CC(=O)[C@]2(O)[C@@]3(C)[C@@H](O)CCC(C)(C)[C@@H]3[C@H](O)[C@H](OC(=O)COC(=O)CN(CC)CC)[C@@]2(C)O1` [1 N(C2 H5)2, 8,13-Epoxy-7β-(2-N,N-diethylglycinyloxyacetoxy)-1α,6β,9α-trihydroxylabd-14-en-11-one hydrochloride], a half-maximal effect (EC50) was put at 0.03 µg/mL.
The same measure, in the same setting: for `C=C[C@@]1(C)CC(=O)[C@]2(O)[C@@]3(C)[C@@H](O)CCC(C)(C)[C@@H]3[C@H](O)[C@H](OC(=O)COC(=O)CN)[C@@]2(C)O1` [1 NH2, 8,13-Epoxy-7β-(2-glycinyloxyacetoxy)-1α,6β,9α-trihydroxylabd-14-en-11-one monohydrochloride] the value was 0.1 µg/mL; for `C=C[C@@]1(C)CC(=O)[C@]2(O)[C@@]3(C)[C@@H](O)CCC(C)(C)[C@@H]3[C@H](O)[C@H](OC(=O)COC(=O)CN(C(C)C)C(C)C)[C@@]2(C)O1` [1 N[CH(CH3)2]2, 8,13-Epoxy-7β-(2-diisopropylaminoacetoxyacetoxy)-1α, 6β,9α-trihydroxylabd-14-en-11-one hydrochloride sesquihydrate], 1 µg/mL.
As for `C=C[C@@]1(C)CC(=O)[C@]2(O)[C@@]3(C)[C@@H](O)CCC(C)(C)[C@@H]3[C@H](O)[C@H](OC(=O)COC(=O)CNc3cc(OC)c(OC)c(OC)c3)[C@@]2(C)O1` [drawing 48], the EC50 (in general, the concentration giving half of the maximal effect) stood at 0.545 µg/mL (≈ 0.839 µM).
Same read-out and setting: for `C=C[C@@]1(C)CC(=O)[C@]2(O)[C@@]3(C)[C@@H](O)CCC(C)(C)[C@@H]3[C@H](O)[C@H](OC(=O)COC(=O)CN3CCC(c4ccccc4)CC3)[C@@]2(C)O1` [drawing 49] the value was 0.18 µg/mL (≈ 0.287 µM).
For `C=C[C@@]1(C)CC(=O)[C@]2(O)[C@@]3(C)[C@@H](O)CCC(C)(C)[C@@H]3[C@H](O)[C@H](OC(=O)COC(=O)CN3CCN(C)CC3)[C@@]2(C)O1` [drawing 50], the EC50 came to 0.1 µg/mL (≈ 0.176 µM). This EC50 lies about 1.8-fold lower than the previous one.
The same measure, in the same setting: the same measure for `C=C[C@@]1(C)CC(=O)[C@]2(O)[C@@]3(C)[C@@H](O)CCC(C)(C)[C@@H]3[C@H](O)[C@H](OC(=O)COC(=O)CN3CCOCC3)[C@@]2(C)O1` [drawing 51]: 1.42 µg/mL (≈ 2.56 µM); for `C=C[C@@]1(C)CC(=O)[C@]2(O)[C@@]3(C)[C@@H](O)CCC(C)(C)[C@@H]3[C@H](O)[C@H](OC(=O)COC(=O)CN3CCN(C(=O)OCC)CC3)[C@@]2(C)O1` [drawing 52]: > 1 µg/mL.

The test is the same for the next values; noted with them: Cavia porcellus, Table IV, formula Ib, 32° C., contractility recorded 7 to 10 minutes.
The compound `C=C[C@@]1(C)CC(=O)[C@]2(O)[C@@]3(C)[C@@H](O)CCC(C)(C)[C@@H]3[C@H](OC(=O)COC(=O)CN3CCCCC3)[C@H](OC(C)=O)[C@@]2(C)O1` returned an EC50 of 0.04 µg/mL (≈ 0.0674 µM).
The same measure, in the same setting: for `C=C[C@@]1(C)CC(=O)[C@]2(O)[C@@]3(C)[C@@H](O)CCC(C)(C)[C@@H]3[C@H](OC(=O)COC(=O)CN3CCN(C)CC3)[C@H](OC(C)=O)[C@@]2(C)O1` the value was 0.006 µg/mL (≈ 0.00986 µM); for `C=C[C@@]1(C)CC(=O)[C@]2(O)[C@@]3(C)[C@@H](O)CCC(C)(C)[C@@H]3[C@H](OC(=O)COC(=O)CN3CCOCC3)[C@H](OC(C)=O)[C@@]2(C)O1`, 0.072 µg/mL (≈ 0.121 µM); for `C=C[C@@]1(C)CC(=O)[C@]2(O)[C@@]3(C)[C@@H](O)CCC(C)(C)[C@@H]3[C@H](OC(=O)COC(=O)CCN3CCCCC3)[C@H](OC(C)=O)[C@@]2(C)O1`, 0.086 µg/mL (≈ 0.142 µM).
`C=C[C@@]1(C)CC(=O)[C@]2(O)[C@@]3(C)[C@@H](O)CCC(C)(C)[C@@H]3[C@H](OC(=O)COC(=O)CN(CC)CC)[C@H](OC(C)=O)[C@@]2(C)O1` [1 OAc N(C2 H5)2, 7β-Acetoxy-6β-(2-N,N-diethylaminoacetoxyacetoxy)-8,13-epoxy-1α,9α-dihydroxylabd-14-en-11-one hydrochloride sesquihydrate] gave an EC50 of 0.03 µg/mL.
The same measure, in the same setting: for `C=C[C@@]1(C)CC(=O)[C@]2(O)[C@@]3(C)[C@@H](O)CCC(C)(C)[C@@H]3[C@H](OC(=O)COC(=O)CN)[C@H](OC(C)=O)[C@@]2(C)O1` [1 OAc NH2, 7β-acetoxy-8,13-epoxy-6β-(2-glycinyloxyacetoxy)-1α,9α-dihydroxylabd-14-en-11-one hydrochloride] the value was 0.008 µg/mL.
On the same count and under the same terms, for `C=C[C@@]1(C)CC(=O)[C@]2(O)[C@@]3(C)[C@@H](O)CCC(C)(C)[C@@H]3[C@H](OC(=O)COC(=O)CN(C(C)C)C(C)C)[C@H](OC(C)=O)[C@@]2(C)O1` [1 OAc N[CH(CH3)2]2, 7β-Acetoxy-6β-(2-N,N-diisopropylaminoacetoxyacetoxy)-8,13-epoxy-1α,9α-dihydroxylabd-14-en-11-one hydrochloride monohydrate] the value was 0.14 µg/mL; for `C=C[C@@]1(C)CC(=O)[C@]2(O)[C@@]3(C)[C@@H](O)CCC(C)(C)[C@@H]3[C@H](OC(=O)COC(=O)CN)[C@H](O)[C@@]2(C)O1` [1 OH NH2, 8,13-epoxy-6β-(2-glycinyloxyacetoxy)-1α,7β, 9α-trihydroxylabd-14-en-11-one hydrochloride], > 10 µg/mL; for `C=C[C@@]1(C)CC(=O)[C@]2(O)[C@@]3(C)[C@@H](O)CCC(C)(C)[C@@H]3[C@H](OC(=O)COC(=O)CCN(C)C)[C@H](OC(C)=O)[C@@]2(C)O1` [2 OAc N(CH3)2], 0.058 µg/mL (≈ 0.102 µM).
Same read-out and setting: the same measure for `C=C[C@@]1(C)CC(=O)[C@]2(O)[C@@]3(C)[C@@H](O)CCC(C)(C)[C@@H]3[C@H](OC(=O)COC(=O)CCN)[C@H](OC(C)=O)[C@@]2(C)O1` [2 OAc NH2]: 0.02 µg/mL (≈ 0.0371 µM).

For another test, the system named is Blood pressure in cats. The test is described as follows: Test for an antihypertensive effect: blood pressure in cats. It is filed as in vivo. The conditions noted are these: 0.1 mg/kg i.v., anesthetized cats, formula Ia. The procedure:
Test for an antihypertensive effect
Cats of both sexes and weighing 3 to 4 kg are anesthetized with ether and maintained under chloralose anesthesia (70 mg/kg i.v.). Cannulas are placed in the femoral artery and femoral vein to record the blood pressure and to administer the medicament, respectively. The blood pressure in the femoral artery is recorded via a Statham P 23 Db pressure transducer on a Nihon-Kohden pen recorder for physiological purposes. The compound to be tested is dissolved in distilled water and administered intravenously. The fall in blood pressure and the duration of the effect lowering blood pressure are noted.
For the compound `C=C[C@@]1(C)CC(=O)[C@]2(O)[C@@]3(C)[C@@H](O)CCC(C)(C)[C@@H]3[C@H](O)[C@H](OC(=O)COC(=O)CN3CCCCC3)[C@@]2(C)O1`, the “duration (of fall of B.P.)” value stood at 40 min and the “fall of B.P.” value is listed as 25 mm Hg.
The corresponding values for `C=C[C@@]1(C)CC(=O)[C@]2(O)[C@@]3(C)[C@@H](O)CCC(C)(C)[C@@H]3[C@H](O)[C@H](OC(=O)COC(=O)CN)[C@@]2(C)O1` [1 NH2, 8,13-Epoxy-7β-(2-glycinyloxyacetoxy)-1α,6β,9α-trihydroxylabd-14-en-11-one monohydrochloride] are 120 min and 20 mm Hg.
The corresponding values for `C=C[C@@]1(C)CC(=O)[C@]2(O)[C@@]3(C)[C@@H](O)CCC(C)(C)[C@@H]3[C@H](O)[C@H](OC(=O)COC(=O)CN(C(C)C)C(C)C)[C@@]2(C)O1` [1 NH[CH(CH3)2]2] are 125 min and 25 mm Hg.
Taken in the same sequence, the figures for `C=C[C@@]1(C)CC(=O)[C@]2(O)[C@@]3(C)[C@@H](O)CCC(C)(C)[C@@H]3[C@H](O)[C@H](OC(=O)COC(=O)CN3CCN(C)CC3)[C@@]2(C)O1` [drawing 61] were 40 min and 20 mm Hg.
As for `C=C[C@@]1(C)CC(=O)[C@]2(O)[C@@]3(C)[C@@H](O)CCC(C)(C)[C@@H]3[C@H](O)[C@H](OC(=O)COC(=O)CN3CCOCC3)[C@@]2(C)O1` [drawing 62], the “duration (of fall of B.P.)” value came to 60 min and the “fall of B.P.” value stood at 30 mm Hg.

The same test, now with this note: 0.3 mg/kg i.v., anesthetized cats, formula Ia.
For the compound `C=C[C@@]1(C)CC(=O)[C@]2(O)[C@@]3(C)[C@@H](O)CCC(C)(C)[C@@H]3[C@H](O)[C@H](OC(=O)COC(=O)CNC(=O)OC(C)(C)C)[C@@]2(C)O1` [1 NHBoC], the “duration (of fall of B.P.)” value stood at 35 min and the “fall of B.P.” value turned out to be 30 mm Hg.
Taken in the same sequence, the figures for `C=C[C@@]1(C)CC(=O)[C@]2(O)[C@@]3(C)[C@@H](O)CCC(C)(C)[C@@H]3[C@H](O)[C@H](OC(=O)COC(=O)CN3CCN(C(=O)OCC)CC3)[C@@]2(C)O1` [drawing 63] were 30 min and 35 mm Hg.

The test is the same for the next values; noted with them: 1 mg/kg i.v., anesthetized cats, formula Ia.
With `C=C[C@@]1(C)CC(=O)[C@]2(O)[C@@]3(C)[C@@H](O)CCC(C)(C)[C@@H]3[C@H](O)[C@H](OC(=O)COC(=O)CN3CCC(c4ccccc4)CC3)[C@@]2(C)O1` [drawing 60], the “duration (of fall of B.P.)” value is 45 min and the “fall of B.P.” value is listed as 60 mm Hg.
In the case of `C=C[C@@]1(C)CC(=O)[C@]2(O)[C@@]3(C)[C@@H](O)CCC(C)(C)[C@@H]3[C@H](O)[C@H](OC(=O)COC(=O)CNc3cc(OC)c(OC)c(OC)c3)[C@@]2(C)O1` [drawing 64], the “duration (of fall of B.P.)” value was found to be 60 min and the “fall of B.P.” value was 80 mm Hg.

The values are drawn from patent publication US5093331A, “Labdane derivatives, a process for their preparation, and their use as medicaments” (Hoechst Aktiengesellschaft, priority 1987, dated 1992).
